We go through 11 molecules from US6465647B1, “Oxygen, sulfur and nitrogen substituted cyclohexene and cyclohexane derivatives having retinoid-like biological activity” (Allergan, Inc., priority 1999, dated 2002).

In the first assay the test system is ornithine decarboxylase (ODC). Put plainly: Ornithine decarboxylase (ODC) assay: inhibition of TPA induction of ODC activity. In kind it is biochemical. The note with it: concentration of the test compound which causes 60% inhibition in the ODC assay (TPA-induced ODC activity). The source says: A classic measure of retinoic acid activity involves measuring the effects of retinoic acid on ornithine decarboxylase. The original work on the correlation between retinoic acid and a decrease in cell proliferation was done by Verma & Boutwell, Cancer Research, 1977, 37, 2196-2201. That reference discloses that ornithine decarboxylase (ODC) activity increased precedent to polyamine biosynthesis. It has been established elsewhere that increases in polyamine synthesis can be correlated or associated with cellular proliferation. Thus, if ODC activity could be inhibited, cell hyperproliferation could be modulated. Although all cases for ODC activity increases are unknown, it is known that 12-0-tetradecanoylphorbol-13-acetate (TPA) induces ODC activity. Retinoic acid inhibits this induction of ODC activity by TPA. […] “IC60” is that concentration of the test compound which causes 60% inhibition in the ODC assay. By analogy, “IC80”, for example, is that concentration of the test compound which causes 80% inhibition in the ODC assay.
Table 1 discloses the activity of certain exemplary compounds of the invention in the above-described oinithine decarboxylase (ODC) assay.
Turning to `CCOC(=O)c1ccc(C#C/C=C/C2=C(C)CCCC2OC(C)=O)cc1` (single isomer, unassigned) [Compound 3a, Ethyl (−)-(E)-4-(4-(6-Acetyloxy-2-methylcyclohex-1-enyl)but-3-en-1-ynyl)benzoate], the “IC60” value worked out at 0.52 nM.

Regarding `CCOC(=O)c1ccc(C#C/C=C/C2=C(C)CCCC2OC(C)=O)cc1` (single isomer, unassigned) [Compound 3b, Ethyl (+)-(E)-4-(4-(6-Acetyloxy-2-methylcyclohex-1-enyl)but3-en-1-ynyl)benzoate], the “IC60” value stood at 4.3 nM.

In the case of `CCOC(=O)c1ccc(C#C/C=C/C2=C(C)CCCC2OC(=O)C(C)(C)C)cc1` (single isomer, unassigned) [Compound 6a, Ethyl (−)-(E)-4-(4-(6-(2,2-Dimethylpropanoyl)oxy-2-methylcyclohex-1-enyl)but-3-ene-1-ynyl)benzoate], the “IC60” value came to 5.1 nM.

On to `CCOC(=O)c1ccc(C#C/C=C/C2=C(C)CCCC2OC(=O)C(C)(C)C)cc1` (single isomer, unassigned) [Compound 6b, Ethyl (+)-(E)-4-(4-(6-(2,2-Dimethylpropanoyl)oxy-2-methylcyclohex-1-enyl)but-3-ene-1-ynyl)benzoate], for which the “IC60” value was 124 nM.

Take `CCOC(=O)c1ccc(C#C/C=C/C2=C(C)CCCC2OC(=O)CC)cc1` (stereo not drawn) [Compound 4a, Ethyl (−)-(E)-4-(4-(6-Propionyloxy-2-methylcyclohex-1-enyl)but-3-en-1-ynyl)benzoate]: the “IC60” value came to 20.9 nM.

With `CCOC(=O)c1ccc(C#C/C=C/C2=C(C)CCCC2OC(=O)C(C)C)cc1` (stereo not drawn) [Compound 5b, Ethyl (+)-(E)-4-(4-(6-iso-Butyryloxy-2-methyicyclohex-1-enyl)but-3-ene-1-ynyl)benzoate], the “IC60” value stood at 234 nM.

Take `CCOC(=O)c1ccc(C#C/C=C/C2=C(C)CCCC2OC(=O)c2ccccc2)cc1` (stereo not drawn) [Compound 7a, Ethyl (−)-(E)-4-(4-(6-Benzoyloxy-2-methylcyclohex-1-enyl)but-3-ene-1-ynyl)benzoate]: the “IC60” value came out at 8.6 nM.

Consider `CCOC(=O)c1ccc(C#CC=CC2=C(C)CCCC2=NOC)cc1` [Compound 10], for which the “IC60” value came out at 2.4 nM.

For the molecule `CCOC(=O)c1ccc(C#CC=CC2=C(C)CCCC2=NOCc2ccccc2)cc1` [Compound 11], the “IC60” value was found to be 10.3 nM.

As to `CCOC(=O)C=C1CCCC(C)=C1C=CC#Cc1ccc(C(=O)OCC)cc1` [Compound 12, Ethyl 4-(4-(6-Ethoxycarbonylmethylene-2-methylcyclohex-1-enyl)but-3-en-1-ynyl)benzoate], the “IC60” value was 7.8 nM.

The same assay, now with this note: concentration of the test compound which causes 60% inhibition in the ODC assay (TPA-induced ODC activity); listed as Sa.
On to `CCOC(=O)c1ccc(C#C/C=C/C2=C(C)CCCC2OC(=O)C(C)C)cc1` (stereo not drawn) [Compound 5a, Ethyl (−)-(E)-4-(4-(6-iso-Butyryloxy-2-methylcyclohex-1-enyl)but-3-ene-1-ynyl)benzoate], for which the “IC60” value was determined as 15.7 nM.
